Results from the NIST ThermoML archive (doi:10.1016/j.jct.2018.02.021).
Where “and” joins values, the source holds several entries; their conditions need not be identical. Equal values may be shown once.

Test: xn = mol fraction of the nth substance listed
Conditions: Gas, Buoyancy - hydrostatic balance with magnetic suspension - two sinkers

CC [ethane] + O=C=O
Conditions | mass density
273.15 K, 531.09 kPa, x1 = 0.2003 | 10.008 kg/m3
273.15 K, 531.52 kPa, x1 = 0.2003 | 10.0165 kg/m3
273.15 K, 531.92 kPa, x1 = 0.2003 | 10.0243 kg/m3
273.15 K, 534.39 kPa, x1 = 0.2003 | 10.0711 kg/m3
273.15 K, 534.79 kPa, x1 = 0.2003 | 10.0789 kg/m3
273.15 K, 535.19 kPa, x1 = 0.2003 | 10.087 kg/m3
273.15 K, 535.63 kPa, x1 = 0.2003 | 10.0955 kg/m3
273.15 K, 544.52 kPa, x1 = 0.2003 | 10.2735 kg/m3
273.15 K, 544.86 kPa, x1 = 0.2003 | 10.2801 kg/m3
273.15 K, 548.14 kPa, x1 = 0.4995 | 9.33133 kg/m3
273.15 K, 551.38 kPa, x1 = 0.05023 | 10.9267 kg/m3
273.15 K, 1023.8 kPa, x1 = 0.2003 | 20.0462 kg/m3
273.15 K, 1024.6 kPa, x1 = 0.2003 | 20.0627 kg/m3
273.15 K, 1025.4 kPa, x1 = 0.2003 | 20.0779 kg/m3
273.15 K, 1026.6 kPa, x1 = 0.2003 | 20.1024 kg/m3
273.15 K, 1027 kPa, x1 = 0.2003 | 20.1108 kg/m3
273.15 K, 1027.6 kPa, x1 = 0.2003 | 20.1219 kg/m3
273.15 K, 1037.4 kPa, x1 = 0.2003 | 20.3384 kg/m3
273.15 K, 1037.8 kPa, x1 = 0.2003 | 20.347 kg/m3
273.15 K, 1051.5 kPa, x1 = 0.4995 | 18.6959 kg/m3
273.15 K, 1075.8 kPa, x1 = 0.05023 | 22.195 kg/m3
273.15 K, 2035.1 kPa, x1 = 0.2003 | 43.7258 kg/m3
273.15 K, 2035.5 kPa, x1 = 0.2003 | 43.7371 kg/m3
273.15 K, 2050.8 kPa, x1 = 0.4995 | 40.4917 kg/m3
273.15 K, 2062 kPa, x1 = 0.05023 | 46.5645 kg/m3
273.15 K, 2554 kPa, x1 = 0.4995 | 53.9302 kg/m3
273.15 K, 2562.2 kPa, x1 = 0.05023 | 61.2253 kg/m3
273.15 K, 3037.3 kPa, x1 = 0.2003 | 73.9637 kg/m3
273.15 K, 3037.9 kPa, x1 = 0.2003 | 73.9838 kg/m3
273.15 K, 3053.1 kPa, x1 = 0.05023 | 77.9966 kg/m3
273.15 K, 3054.4 kPa, x1 = 0.4995 | 70.1143 kg/m3
273.15 K, 3480.6 kPa, x1 = 0.2003 | 91.4391 kg/m3 and 91.4331 kg/m3
273.15 K, 3488.2 kPa, x1 = 0.2003 | 91.7868 kg/m3
273.15 K, 3488.7 kPa, x1 = 0.2003 | 91.8117 kg/m3
273.15 K, 3489.4 kPa, x1 = 0.2003 | 91.84 kg/m3
273.15 K, 3507.2 kPa, x1 = 0.2003 | 92.6352 kg/m3 and 92.638 kg/m3
283.15 K, 518.17 kPa, x1 = 0.2003 | 9.36982 kg/m3
283.15 K, 519.18 kPa, x1 = 0.05023 | 9.86023 kg/m3
283.15 K, 538.66 kPa, x1 = 0.4995 | 8.79999 kg/m3
283.15 K, 1030 kPa, x1 = 0.05023 | 20.2371 kg/m3
283.15 K, 1031.7 kPa, x1 = 0.4995 | 17.4887 kg/m3
283.15 K, 1041.5 kPa, x1 = 0.2003 | 19.5141 kg/m3
283.15 K, 2018.1 kPa, x1 = 0.4995 | 37.3012 kg/m3
283.15 K, 2025.9 kPa, x1 = 0.05023 | 42.9555 kg/m3
283.15 K, 2038.1 kPa, x1 = 0.2003 | 41.2701 kg/m3
283.15 K, 3029.9 kPa, x1 = 0.05023 | 70.7861 kg/m3
283.15 K, 3032.8 kPa, x1 = 0.4995 | 62.9635 kg/m3
283.15 K, 3042.8 kPa, x1 = 0.2003 | 68.0188 kg/m3
283.15 K, 3546.2 kPa, x1 = 0.05023 | 88.2259 kg/m3
283.15 K, 3550.3 kPa, x1 = 0.4995 | 79.7057 kg/m3
283.15 K, 4013.1 kPa, x1 = 0.4995 | 98.6426 kg/m3
283.15 K, 4045.7 kPa, x1 = 0.05023 | 108.543 kg/m3
283.15 K, 4069.8 kPa, x1 = 0.2003 | 104.912 kg/m3
283.15 K, 4501.8 kPa, x1 = 0.2003 | 126.607 kg/m3
283.15 K, 4602.7 kPa, x1 = 0.2003 | 132.714 kg/m3
283.15 K, 4730.9 kPa, x1 = 0.2003 | 141.359 kg/m3
283.15 K, 4821.7 kPa, x1 = 0.2003 | 148.288 kg/m3
293.15 K, 519.57 kPa, x1 = 0.2003 | 9.04307 kg/m3
293.15 K, 525.66 kPa, x1 = 0.4995 | 8.25163 kg/m3
293.15 K, 1026.1 kPa, x1 = 0.4995 | 16.6496 kg/m3
293.15 K, 1034.3 kPa, x1 = 0.2003 | 18.5618 kg/m3
293.15 K, 2026.9 kPa, x1 = 0.2003 | 38.8656 kg/m3
293.15 K, 2045.8 kPa, x1 = 0.4995 | 35.8484 kg/m3
293.15 K, 3032.6 kPa, x1 = 0.4995 | 58.2406 kg/m3
293.15 K, 3042.1 kPa, x1 = 0.2003 | 63.2873 kg/m3
293.15 K, 4051.5 kPa, x1 = 0.4995 | 88.2376 kg/m3
293.15 K, 4055.4 kPa, x1 = 0.2003 | 93.5899 kg/m3
293.15 K, 4555.2 kPa, x1 = 0.4995 | 107.86 kg/m3
293.15 K, 5019.3 kPa, x1 = 0.4995 | 131.598 kg/m3
293.15 K, 5020.8 kPa, x1 = 0.2003 | 133.141 kg/m3
308.15 K, 542.53 kPa, x1 = 0.4995 | 8.06912 kg/m3
308.15 K, 1040.9 kPa, x1 = 0.4995 | 15.9143 kg/m3
308.15 K, 2034.5 kPa, x1 = 0.4995 | 33.0477 kg/m3
308.15 K, 3050.6 kPa, x1 = 0.4995 | 53.2563 kg/m3
308.15 K, 4038.3 kPa, x1 = 0.4995 | 76.6788 kg/m3
308.15 K, 4551.5 kPa, x1 = 0.4995 | 90.9786 kg/m3
308.15 K, 5013.9 kPa, x1 = 0.4995 | 105.639 kg/m3
323.15 K, 524.46 kPa, x1 = 0.05023 | 8.6271 kg/m3
323.15 K, 543.73 kPa, x1 = 0.4995 | 7.68033 kg/m3
323.15 K, 1024.4 kPa, x1 = 0.4995 | 14.7964 kg/m3
323.15 K, 1024.9 kPa, x1 = 0.05023 | 17.2074 kg/m3
323.15 K, 2039.4 kPa, x1 = 0.05023 | 35.7934 kg/m3
323.15 K, 2040.2 kPa, x1 = 0.4995 | 31.0101 kg/m3
323.15 K, 3036.4 kPa, x1 = 0.4995 | 48.806 kg/m3
323.15 K, 3038.7 kPa, x1 = 0.05023 | 55.972 kg/m3
323.15 K, 4027.4 kPa, x1 = 0.4995 | 68.9564 kg/m3
323.15 K, 4049.9 kPa, x1 = 0.05023 | 78.8065 kg/m3
323.15 K, 5024.6 kPa, x1 = 0.4995 | 92.5708 kg/m3
323.15 K, 5061.4 kPa, x1 = 0.05023 | 104.85 kg/m3
323.15 K, 5982.2 kPa, x1 = 0.4995 | 119.675 kg/m3
323.15 K, 6013.8 kPa, x1 = 0.05023 | 133.393 kg/m3
